Assay results published in patent US20220363709A1, “ECTONU[…] METHODS OF USE THEREOF” (priority 2019, published 2022).

target: T1, recombinant CD73 (Homo sapiens, UniProt P21589); test: Assay 1: Inhibition of the CD73 Enzyme In Vitro; format: biochemical; details: not given
T1 construct: purchased R&D Systems 5795-EN-010
T1 sequence (P21589 27-547 limits assumed): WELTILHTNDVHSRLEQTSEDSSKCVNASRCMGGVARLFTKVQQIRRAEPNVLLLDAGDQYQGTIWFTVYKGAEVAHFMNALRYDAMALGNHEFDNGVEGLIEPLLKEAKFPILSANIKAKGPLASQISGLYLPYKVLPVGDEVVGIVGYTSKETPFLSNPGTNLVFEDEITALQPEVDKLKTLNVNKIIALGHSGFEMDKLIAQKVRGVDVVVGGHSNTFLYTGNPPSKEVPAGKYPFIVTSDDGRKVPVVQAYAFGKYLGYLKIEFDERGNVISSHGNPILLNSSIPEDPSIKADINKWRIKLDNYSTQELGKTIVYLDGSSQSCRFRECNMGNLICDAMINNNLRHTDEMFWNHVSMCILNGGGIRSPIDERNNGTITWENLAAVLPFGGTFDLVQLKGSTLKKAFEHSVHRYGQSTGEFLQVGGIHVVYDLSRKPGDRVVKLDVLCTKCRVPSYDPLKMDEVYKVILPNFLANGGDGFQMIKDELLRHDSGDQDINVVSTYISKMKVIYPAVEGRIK
Procedure: Serial dilutions of test compounds were incubated with recombinant CD73 and AMP in reaction buffer (25 mM Tris HCl pH7.5, 5 mM MgCl2, 50 mM NaCl, 0.25 mM DTT, 0.005% Triton X-100). The final reaction volume was 25 μL and the final concentrations of recombinant CD73 and AMP were 0.5 nM and 50 μM, respectively. […] After 5 minutes at room temperature, absorbance at 630 nm was determined on a microplate spectrophotometer. The concentration of inorganic phosphate was determined using a phosphate standard curve.
ND indicates not determined.

IC50 [nM] | SMILES
> 50000 | COC(=O)c1ccccc1-c1ccc(CC(OC[C@H]2O[C@@H](n3cnc4c(N)nc(Cl)nc43)[C@H](O)[C@@H]2O)(C(=O)O)c2ccccc2)cc1 (stereo partly drawn) [Example 46, 2-(((2R,3S,4R,5R)-5-(6-amino-2-chloro-9H-purin-9-yl)-3,4-dihydroxytetrahydrofuran-2-yl)methoxy)-3-(2′-(methoxycarbonyl)-[1,1′-biphenyl]-4-yl)-2-phenylpropanoic acid]
> 1000 | Nc1nc(Cl)nc2c1ncn2[C@@H]1O[C@H](COC(Cc2ccc(-c3ccccc3C(=O)O)cc2)(C(=O)O)c2cscn2)C[C@H]1O (stereo partly drawn) [Example 50, 4′-(2-(((2S,4R,5R)-5-(6-amino-2-chloro-9H-purin-9-yl)-4-hydroxytetrahydrofuran-2-yl)methoxy)-2-carboxy-2-(thiazol-4-yl)ethyl)-[1,1′-biphenyl]-2-carboxylic acid]

same assay, conditions: soluble recombinant CD73 0.5 nM, AMP 50 μM, 30 minutes at room temperature, Malachite Green, absorbance at 630 nm; read-out: Assay 1 CD73 IC50

SMILES | IC50 [nM]
Nc1nc(Cl)nc2c1ncn2[C@@H]1O[C@H](CO[C@@](Cc2ccc(-c3ccccc3)cc2)(C(=O)O)c2cscn2)[C@@H](O)[C@@H]1F (single isomer, unassigned) [Example 9] | 2640
Nc1nc(Cl)nc2c1ncn2[C@@H]1O[C@H](CO[C@@](Cc2ccc(-c3ccc(C(=O)O)cc3)cc2)(C(=O)O)c2cscn2)[C@@H](O)[C@@H]1F (single isomer, unassigned) [Example 11] | 1530
Nc1nc(Cl)nc2c1ncn2[C@@H]1O[C@H](CO[C@@](Cc2ccc(C(=O)O)cc2)(C(=O)O)c2cscn2)[C@@H](O)[C@@H]1F (single isomer, unassigned) [Example 16] | 4870
COc1ncccc1-c1ccc(C[C@](OC[C@H]2O[C@@H](n3cnc4c(N)nc(Cl)nc43)[C@@H](F)[C@@H]2O)(C(=O)O)c2cscn2)cc1 (single isomer, unassigned) [Example 20] | 2750
Nc1nc(Cl)nc2c1ncn2[C@@H]1O[C@H](CO[C@@](Cc2ccc(-c3ccc[nH]c3=O)cc2)(C(=O)O)c2cscn2)[C@@H](O)[C@@H]1F (single isomer, unassigned) [Example 22] | 2980
Cc1nc([C@@](Cc2ccc(-c3ccccc3)cc2)(OC[C@H]2O[C@@H](n3cnc4c(N)nc(Cl)nc43)[C@H](O)[C@@H]2O)C(=O)O)cs1 (single isomer, unassigned) [Example 29] | 3220
Nc1nc([C@@](Cc2ccccc2)(OC[C@H]2O[C@@H](n3cnc4c(N)nc(Cl)nc43)[C@H](O)[C@@H]2O)C(=O)O)cs1 (single isomer, unassigned) [Example 31] | 1970
Nc1nc(Cl)nc2c1ncn2[C@@H]1O[C@H](CO[C@@](Cc2ccccc2)(C(=O)O)c2cocn2)[C@@H](O)[C@H]1O (single isomer, unassigned) [Example 36] | 6260
COc1cccc(CO)c1-c1ccc(C[C@](OC[C@H]2O[C@@H](n3cnc4c(N)nc(Cl)nc43)[C@H](O)[C@@H]2O)(C(=O)O)c2cscn2)cc1 (single isomer, unassigned) [Example 40] | 2230
Nc1nc(Cl)nc2c1ncn2[C@@H]1O[C@H](CO[C@](Cc2ccc(-c3ccccc3C(=O)O)cc2)(C(=O)O)c2ccccc2)[C@@H](O)[C@H]1O (single isomer, unassigned) [Example 47] | 4220
Nc1nc(Cl)nc2c1ncn2[C@@H]1O[C@H](CO[C@@](Cc2ccc(-c3ccccc3C(=O)O)cc2)(C(=O)O)c2ccccc2)[C@@H](O)[C@H]1O (single isomer, unassigned) [Example 48] | 14100

The next lines start with the values.

IC50 [nM] | SMILES
227 | Nc1nc(Cl)nc2c1ncn2[C@@H]1O[C@H](CO[C@](Cc2ccc(-c3ccc(C(=O)O)cc3)cc2)(C(=O)O)c2cscn2)[C@@H](O)[C@@H]1F (single isomer, unassigned) [Example 10]
296 | Nc1nc(Cl)nc2c1ncn2[C@@H]1O[C@H](CO[C@](Cc2ccc(C(=O)O)cc2)(C(=O)O)c2cscn2)[C@@H](O)[C@@H]1F (single isomer, unassigned) [Example 15]
170 | COc1ncccc1-c1ccc(C[C@@](OC[C@H]2O[C@@H](n3cnc4c(N)nc(Cl)nc43)[C@@H](F)[C@@H]2O)(C(=O)O)c2cscn2)cc1 (single isomer, unassigned) [Example 19]
47 | Nc1nc(Cl)nc2c1ncn2[C@@H]1O[C@H](CO[C@](Cc2ccc(-c3ccc[nH]c3=O)cc2)(C(=O)O)c2cscn2)[C@@H](O)[C@@H]1F (single isomer, unassigned) [Example 21]
90 | Cc1nc([C@](Cc2ccc(-c3ccccc3)cc2)(OC[C@H]2O[C@@H](n3cnc4c(N)nc(Cl)nc43)[C@H](O)[C@@H]2O)C(=O)O)cs1 (single isomer, unassigned) [Example 28]
342 | Nc1nc([C@](Cc2ccccc2)(OC[C@H]2O[C@@H](n3cnc4c(N)nc(Cl)nc43)[C@H](O)[C@@H]2O)C(=O)O)cs1 (single isomer, unassigned) [Example 30]
290 | Nc1nc(Cl)nc2c1ncn2[C@@H]1O[C@H](CO[C@](Cc2ccccc2)(C(=O)O)c2cocn2)[C@@H](O)[C@H]1O (single isomer, unassigned) [Example 35]
68 | COc1cccc(CO)c1-c1ccc(C[C@@](OC[C@H]2O[C@@H](n3cnc4c(N)nc(Cl)nc43)[C@H](O)[C@@H]2O)(C(=O)O)c2cscn2)cc1 (single isomer, unassigned) [Example 39]
43 | CS(=O)(=O)Nc1ccccc1-c1ccc(C[C@@](OC[C@H]2O[C@@H](n3cnc4c(N)nc(Cl)nc43)[C@H](O)[C@@H]2O)(C(=O)O)c2cscn2)cc1 (single isomer, unassigned) [Example 41]
904 | CS(=O)(=O)Nc1ccccc1-c1ccc(C[C@](OC[C@H]2O[C@@H](n3cnc4c(N)nc(Cl)nc43)[C@H](O)[C@@H]2O)(C(=O)O)c2cscn2)cc1 (single isomer, unassigned) [Example 42]
51 | Nc1nc(Cl)nc2c1ncn2[C@@H]1O[C@H](CO[C@](Cc2ccc(-c3ccccc3OC(F)(F)F)cc2)(C(=O)O)c2cscn2)[C@@H](O)[C@H]1O (single isomer, unassigned) [Example 43]
365 | Nc1nc(Cl)nc2c1ncn2[C@@H]1O[C@H](CO[C@@](Cc2ccc(-c3ccccc3OC(F)(F)F)cc2)(C(=O)O)c2cscn2)[C@@H](O)[C@H]1O (single isomer, unassigned) [Example 44]
